Entries after “also recorded” stand apart in the source; their conditions may differ. Read-outs that look alike come from different tables or passages of the source.
Tests used:
T1R2/T1R3 = target: T1, T1R2/T1R3 (Homo sapiens, UniProt Q7RTX0+Q8TE23); settings: Mailliet et al. (2009); read-out: IC50 for inhibition of the sucralose response of the sweet receptor (calcium imaging); cited from earlier work
T1 construct: host or cells: HEK cells overexpressing T1R2, T1R3 and G16-gust44 (Mailliet et al. 2009; Masuda et al. 2012)
T1 sequence (Q8TE23 20-839): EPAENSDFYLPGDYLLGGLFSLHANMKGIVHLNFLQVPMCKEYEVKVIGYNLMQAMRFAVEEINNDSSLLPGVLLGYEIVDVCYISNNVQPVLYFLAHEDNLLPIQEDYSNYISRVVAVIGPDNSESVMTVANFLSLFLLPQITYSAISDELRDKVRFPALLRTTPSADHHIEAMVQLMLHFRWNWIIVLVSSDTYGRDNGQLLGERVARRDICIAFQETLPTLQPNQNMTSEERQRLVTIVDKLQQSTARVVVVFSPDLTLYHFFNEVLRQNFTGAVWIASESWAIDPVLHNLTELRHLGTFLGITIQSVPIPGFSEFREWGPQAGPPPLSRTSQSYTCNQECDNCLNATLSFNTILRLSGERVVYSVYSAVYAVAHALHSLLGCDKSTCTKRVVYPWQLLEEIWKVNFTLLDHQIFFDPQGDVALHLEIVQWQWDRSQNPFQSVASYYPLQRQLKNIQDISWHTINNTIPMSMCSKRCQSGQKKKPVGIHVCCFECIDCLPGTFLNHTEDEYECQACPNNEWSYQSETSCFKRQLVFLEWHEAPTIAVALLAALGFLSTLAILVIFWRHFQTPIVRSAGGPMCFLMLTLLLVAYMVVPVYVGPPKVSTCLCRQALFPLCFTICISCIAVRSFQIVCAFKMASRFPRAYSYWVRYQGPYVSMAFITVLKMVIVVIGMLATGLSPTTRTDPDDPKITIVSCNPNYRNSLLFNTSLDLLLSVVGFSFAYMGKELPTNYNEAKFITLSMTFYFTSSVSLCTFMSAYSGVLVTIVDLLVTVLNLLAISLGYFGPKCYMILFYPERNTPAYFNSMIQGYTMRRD
T1 sequence (Q7RTX0 21-852): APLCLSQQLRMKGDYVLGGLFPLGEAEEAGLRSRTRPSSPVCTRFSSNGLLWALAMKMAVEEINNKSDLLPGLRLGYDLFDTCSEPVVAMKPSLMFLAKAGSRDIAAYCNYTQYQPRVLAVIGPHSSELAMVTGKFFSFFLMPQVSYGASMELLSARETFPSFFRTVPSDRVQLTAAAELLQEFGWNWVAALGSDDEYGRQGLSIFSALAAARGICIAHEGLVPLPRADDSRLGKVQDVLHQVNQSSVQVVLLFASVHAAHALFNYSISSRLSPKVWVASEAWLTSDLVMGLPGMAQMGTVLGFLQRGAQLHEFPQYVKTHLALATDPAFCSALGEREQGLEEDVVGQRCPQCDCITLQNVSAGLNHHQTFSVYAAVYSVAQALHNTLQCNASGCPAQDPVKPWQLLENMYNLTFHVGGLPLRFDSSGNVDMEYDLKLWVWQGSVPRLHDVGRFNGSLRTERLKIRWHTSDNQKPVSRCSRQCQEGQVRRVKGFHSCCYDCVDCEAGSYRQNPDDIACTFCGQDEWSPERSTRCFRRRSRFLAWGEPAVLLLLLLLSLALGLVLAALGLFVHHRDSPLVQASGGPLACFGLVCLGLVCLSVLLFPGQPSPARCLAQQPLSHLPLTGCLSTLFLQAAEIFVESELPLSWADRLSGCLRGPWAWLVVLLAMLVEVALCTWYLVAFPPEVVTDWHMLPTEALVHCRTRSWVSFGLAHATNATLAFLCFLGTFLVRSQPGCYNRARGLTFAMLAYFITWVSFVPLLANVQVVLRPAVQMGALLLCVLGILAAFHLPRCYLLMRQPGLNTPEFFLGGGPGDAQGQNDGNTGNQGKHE

Nav1.5 = test: Patch-clamp (voltage clamp) recording of VGSC current in HEK cells stably expressing Nav1.5; settings: for IC50: read-out: IC50 (VGSC inhibition)
Nav1.6 [1] = test: Patch-clamp recording of VGSC current in HEK (Nav1.6) cells; format: cell-based, human
From the text: The cells used in the previous (18-1) experiment were cardiac-type VGSC cells. In this experiment, HEK (Nav1.1) and HEK (Nav1.6) cells, which are considered neuronal VGSC cells, were created. The effects of four peptides—Aβ25-35, Aβ1-38, Aβ1-40, and Aβ1-42—were examined using the same experimental protocol as in (18-1). […]

Nav1.1 = test: Patch-clamp recording of VGSC current in HEK (Nav1.1) cells; format: cell-based, human
From the text: The cells used in the previous (18-1) experiment were cardiac-type VGSC cells. In this experiment, HEK (Nav1.1) and HEK (Nav1.6) cells, which are considered neuronal VGSC cells, were created. The effects of four peptides—Aβ25-35, Aβ1-38, Aβ1-40, and Aβ1-42—were examined using the same experimental protocol as in (18-1).

VGSC = test: Patch-clamp recording of VGSC current, cell type not specified or several cell types (summary statements); format: cell-based, human
Kv1.2 = test: Patch-clamp recording of Kv1.2 potassium current in HEK cells expressing Kv1.2; format: cell-based, human
Experimental: The effects of Aβ peptides or umami substances on sustained potassium currents (VGKC) in cardiac myocytes can be studied using HEK cells expressing VGKC (such as Kv1.2, Kv3.2, Kv3.3) as well as SH-SY5Y cells expressing endogenous T1R GPCRs. For instance, as shown in the implementation example in (FIG. 36B), Aβ peptides were applied to VGKC-expressing human cultured cells, and VGKC currents were recorded using ramp-like or rectangular voltage waveforms via the patch-clamp technique. This allowed measurement of the changes (inhibition) in VGKC currents caused by Aβ peptides. Similar inhibition studies on VGKC can be conducted using umami substance L-glutamate sodium (MSG) (FIG. 36A).
As shown in (FIG. 37), Aβ1-42 peptide, unlike Aβ25-35 targeting T1R3, interacts with T1R1 and inhibits VGSC currents (FIGS. 37D, E).

[2] = tested on: Nav1.5 in T1R3-silenced HEK cells; test: VGSC current in HEK Nav1.5 cells with silenced T1R3; format: cell-based, human
From the text: The miRNAs Oligo (Thermofisher) used for silencing were annealed to form double-stranded DNA, which was then linked to the miR RNAi Expression Vector using T4 DNA ligase to create the knockdown vector. Specifically, the procedure followed the miR RNAi Expression Vector Kit manual (BLOCK-i™ Pol II miR RNAi Expression Vector Kit with EmGFP (Catalog number: K493600)).
Since Aβ25-35 peptide produced similar effects (enhancing VGSC activity, lowering the excitability threshold) as glutamine, it was considered that Aβ25-35 peptide might also act on T1R2/T1R3 receptors like glutamine. Therefore, in this implementation example, we used HEK-Nav1.5 cells with silenced T1R3 and compared the effect of Aβ25-35 peptide on VGSC with that in control HEK-Nav1.5 cells.
To strengthen these findings, we conducted similar experiments using HEK Nav1.5 cells in which T1R3 expression was silenced (FIG. 22). We measured VGSC currents in T1R3-silenced HEK Nav1.5 cells, applying stimuli every 8 seconds.

Cav1.2 = test: Intracellular calcium measurement in HEK cells stably expressing Cav1.2 after KCl depolarisation; format: cell-based, human; settings: 12.5 nM
Experimental: Specifically, experiments were conducted using a method to measure intracellular calcium concentration in HEK cells stably expressing Cav1.2. […] High concentrations of KCl depolarize the cell membrane potential by depolarizing the potassium equilibrium potential from the resting potential, activating voltage-gated calcium channels (VGCC, Cav1.2) that are activated by depolarization, and allowing extracellular calcium to flow into the cell through these calcium channels. (FIG. 47A) measures the activation process of intracellular calcium increase caused by the activation of these VGCCs.
The calcium response to high concentrations of potassium decays with a certain regularity, so the process was approximated using the Hyperbolic Decline formula
and the difference between the curve obtained (dashed line in FIG. 47A) and the experimental values was calculated to derive the enhancement of intracellular calcium by Aβ1-42 peptide.

[3] = tested on: endogenous T1R GPCR of HEK cells; test: Intracellular calcium (Cal-520) in HEK cells stably expressing Nav1.1 with endogenous T1R GPCR; format: cell-based, human; settings: 10 nM then 20 nM for Aβ1-40 and Aβ1-42
Experimental: Specifically, experiments were conducted as follows using HEK cells stably expressing Nav1.1 (FIG. 45). The calcium-sensitive reagent (Cal-520, AAT Bioquest) was incubated at 37° C. for 60 minutes, followed by incubation at room temperature for 30 minutes, and then changes in intracellular calcium were measured using a fluorescence microscope. […] Initially, 10 nM, followed by 20 nM of Aβ1-40 was applied after 5 minutes (arrow). […] A total of 6 cell groups from two independent experiments were measured, averaged by the maximum fluorescence response value, and the mean and standard error (stderr) were calculated and plotted. […] 10 nM, followed by 20 nM of Aβ1-42 was applied after 5 minutes (arrow). […] A total of 12 cell groups from two independent experiments were measured, averaged by the minimum fluorescence response value, and the mean and standard error (stderr) were calculated and plotted. Similar to the experimental results using the patch-clamp method when Aβ peptide was applied to Nav1.5, it was confirmed from intracellular calcium measurements that the effects of Aβ1-40 and Aβ1-42 were different.

HEK Nav1.5 cells = test: GFP-Tubulin / GFP-Actin cytoskeleton observation in HEK Nav1.5 cells; format: cell-based, human
From the text: To observe the impact of cinacalcet and Aβ1-42 peptide on microfilament (actin) fiber structures, we labeled cells with GFP-Actin (FIG. 34). […] This experimental approach, using GFP-Tubulin, GFP-Actin, or other fluorescent proteins to label microtubules and microfilaments, can be used to screen compounds that regulate the activity of ion channels and neuronal function-controlling proteins. Additionally, simultaneous labeling of tubulin and actin can be achieved using fluorescent antibodies or phalloidin after cell fixation.

Nav1.6 [4] = test: Patch-clamp recording of VGSC current in HEK (Nav1.6) cells; format: cell-based, human; settings: HEK cells expressing Nav1.6 and Kv1.2

Compound	IC50 (T1R2/T1R3)	IC50 (Nav1.5; prepulse −80 mV)	IC50 (Nav1.5; prepulse −100 mV)	IC50 (Nav1.5; prepulse −120 mV)	Effect on VGSC current (Nav1.6 [1])	Effect on VGSC current (Nav1.1)	Effect on VGSC inactivation (VGSC)	Effects on VGSCs (VGSC)	Effect on voltage gated K+ channel (Kv1.2) current (Kv1.2)	Effect on voltage gated K+ channel (Kv1.2) current (Kv1.2; listed as Aβ42 peptide)	Effect on VGSC in T1R3-silenced cells [2]	Intracellular calcium after KCl-induced Cav1.2 activation (Cav1.2)	Enhancement of intracellular calcium relative to response to high concentrations of potassium (Cav1.2; n=3)	Change in intracellular calcium [3]	Microfilament structure (GFP-Actin) (HEK Nav1.5 cells)	Effect on Nav1.6 VGSC current (Nav1.6 [4])	Effect on VGSC current (Nav1.5; 12.5 nM and 25 nM)	Effect on Nav1.5 VGSC current (Nav1.5; 12.5 nM, perforated patch-clamp with Gramicidin)	Shift of I-V plot peak in the hyperpolarizing direction (Nav1.5; 74 nM)	Effect on VGSC current (Nav1.5; 74 nM, whole-cell voltage clamp, listed as Aβ1-42 peptide)
CCOC(=O)C(C)(C)Oc1ccc(Cl)cc1 [Clofibrate]	28 µM	580 µM	1200 µM	1040 µM																
Aβ1-42: amyloid β peptide, Sequence No. 4					enhancement of VGSC was observed	enhancement of VGSC was observed	delays the inactivation	Delay in VGSC inactivation	reduced Kv1.2 potassium current; also recorded: concentration-dependently inhibits Kv1.2 potassium currents	Inhibition of Voltage gated	is lost	further increase in intracellular calcium	about 11%	biphasic response; also recorded: transiently decreased, slowly recovered, and then began to increase	condensed GFP-Actin structures	amplified; also recorded: enhancing effect	concentration-dependent reductions in VGSC current	enhanced; also recorded: enhancement effect	5-10 mV	decreasing trend; also recorded: suppressed sodium channel currents
